In patent US9221814B2, “Heterocyclic guanidine F1F0-atpase inhibitors and therapeutic uses thereof” (Lycera Corporation, priority 2012, dated 2015):
Where two headings read alike, the source gives them in different places.

Assays:
Ramos cells = assay: Cytotoxicity in Ramos cells; format: cell-based; settings: detection limit EC50=16 μM, read-out: Ramos Cell EC50
Protocol: (§1) Exemplary compounds described in above Examples were tested for activity against F1F0-ATPase by measuring the ability of the compounds to inhibit ATP synthesis. In addition, the compounds were assessed for cytotoxicity in Ramos cells. Inhibition of F1F0-ATPase activity in synthesizing ATP and cytotoxicity in Ramos cells were measured according to the procedures described in K. M. Johnson et al. Chemistry & Biology 2005, 12, 485-496.

F1F0-ATPase = biological target: T1, F1F0-ATPase (Bos taurus, UniProt P13621); assay: Inhibition of F1F0-ATPase activity in synthesizing ATP (ATP synthesis inhibition); format: biochemical; settings: detection limit IC50=16 μM, read-out: ATP Syn IC50
T1 construct: from tissue
Protocol: as §1

Compound | EC50 (Ramos cells) [µM] | IC50 (F1F0-ATPase) [µM] | EC50 (Ramos cells; Homo sapiens) [µM]
Cc1ccccc1N/C(=N/C(=O)c1cn(C)nc1C(F)(F)F)Nc1cc(-c2ccc(O)c(F)c2)n[nH]1 [Compound A-185] | < 5 | < 5 | 
Cc1cc(C(=O)/N=C(\Nc2ccc(C(F)(F)F)nc2)Nc2cccc(Cl)c2)on1 [Compound A-232] |  | < 5 | < 5
Cn1cc(C(=O)/N=C(/Nc2ccc(F)c(C#N)c2)Nc2cc(-c3ccc(O)c(F)c3)n[nH]2)c(C(F)(F)F)n1 [Compound A-172] | > 16 | 5 to 16 | 
Cn1cc(C(=O)/N=C(/Nc2cc(-c3cc(F)cc(F)c3)n[nH]2)NC2CCCC2)c(C(F)(F)F)n1 [Compound A-27] | < 5 | < 5 | 
CCOCCCNC(=NC(=O)c1cc(C)oc1C(F)(F)F)Nc1cc(-c2ccc(F)cc2)n[nH]1 [Compound A-199] |  | < 5 | < 5
Cc1cc(C(=O)/N=C(\Nc2ccc(C(F)(F)F)nc2)Nc2cccc(C(F)(F)F)c2)on1 [Compound A-233] |  | < 5 | < 5
CC(C)N/C(=N/C(=O)c1cn(C)nc1C(F)(F)F)Nc1cc(-c2ccc(O)c(F)c2)n[nH]1 [Compound A-152] | 5 to 16 | 5 to 16 | 
Cn1cc(C(=O)/N=C(/Nc2ccc(F)cc2)Nc2cc(-c3ccc(O)c(F)c3)n[nH]2)c(C(F)(F)F)n1 [Compound A-164] | < 5 | < 5 | 
COc1ccc(-c2cc(N/C(=N\C(=O)c3cn(C)nc3C(F)(F)F)Nc3cccc(Cl)c3)[nH]n2)cc1F [Compound A-154] | > 16 | < 5 | 
Cc1oncc1C(=O)/N=C(\Nc1cc(-c2ccc(F)cc2)[nH]n1)NC1CCC1 [Compound A-125] | > 16 | > 16 | 
Cn1cc(C(=O)/N=C(/Nc2cc(F)cc(Cl)c2)Nc2cc(-c3cc(O)ccc3F)n[nH]2)c(C(F)(F)F)n1 [Compound A-180] | < 5 | 5 to 16 | 
Cc1c(Cl)cccc1N/C(=N/C(=O)c1cn(C)nc1C(F)(F)F)Nc1cc(-c2ccc(O)c(F)c2)n[nH]1 [Compound A-184] | < 5 | < 5 | 
CCOCCCN/C(=N\C(=O)c1cnoc1C)Nc1cc(-c2cc(F)cc(F)c2)n[nH]1 [Compound A-1] | > 16 | > 16 | 
Cn1cc(C(=O)/N=C(/Nc2cc(F)cc(Cl)c2)Nc2cc(-c3ccc(O)c(F)c3)n[nH]2)c(C(F)(F)F)n1 [Compound A-189] | < 5 | < 5 | 
Cc1cc(C(=O)/N=C(\Nc2ccc(C(F)(F)F)nc2)Nc2cc(F)cc(Cl)c2)on1 [Compound A-231] |  | < 5 | < 5
Cc1cc(C(=O)/N=C(/Nc2cc(F)cc(Cl)c2)Nc2cc(C(F)(F)F)nn2C(C)C)on1 [Compound A-225] |  | < 5 | < 5
CC(C)CN/C(=N/C(=O)c1cn(C)nc1C(F)(F)F)Nc1cc(-c2ccc(O)cc2F)n[nH]1 [Compound 4, N-(((3-(2-Fluoro-4-hydroxyphenyl)-1H-pyrazol-5-yl)amino)(isobutylamino)methylene)-1-methyl-3-(trifluoromethyl)-1H-pyrazole-4-carboxamide] |  | > 16 | > 16
CC(C)N/C(=N/C(=O)c1cc(C(C)(C)C)nn1C)Nc1cc(-c2ccc(F)cc2)n[nH]1 [Compound A-49] | < 5 | < 5 | 
Cc1cc(C(=O)/N=C(\Nc2cc(-c3ccc(F)cc3)n[nH]2)NC(C)C)no1 [Compound A-48] | > 16 | > 16 | 
Cc1nc(C(=O)/N=C(\Nc2cc(-c3ccc(F)cc3)n[nH]2)NC(C)(C)C)c(C)o1 [Compound A-191] | > 16 | > 16 | 
Cc1oncc1C(=O)N=C(Nc1cc(-c2ccc(Cl)cc2)n[nH]1)NC(C)C [Compound A-70] |  | > 16 | > 16
COc1ccc(-c2cc(N/C(=N\C(=O)c3cn(C)nc3C(F)(F)F)NCC(C)C)n[nH]2)cc1F [Compound A-133] | < 5 | < 5 | 
Cc1cc(N/C(=N\C(=O)c2cc(C)oc2C(F)(F)F)NCC(C)C)[nH]n1 [Compound A-109] | > 16 | 5 to 16 | 
CCOC(=O)NC1CCC(N/C(=N\C(=O)c2cc(C)oc2C(F)(F)F)Nc2cc(Cl)ccc2OC)CC1 (stereo not drawn) [Compound A-215] |  | < 5 | 5 to 16
Cc1cc(C(=O)N=C(Nc2cc(-c3cc(F)cc(F)c3)n[nH]2)NC(C)C)n(C)n1 [Compound A-81] |  | < 5 | 5 to 16
Cc1cc(N/C(=N\C(=O)c2cc(C)oc2C(F)(F)F)NC(C)(C)C)[nH]n1 [Compound A-107] | > 16 | > 16 | 
Cc1cc(C(=O)/N=C(/NCC(C)C)Nc2cc(-c3cc(F)cc(F)c3)[nH]n2)c(C(F)(F)F)o1 [Compound A-116] | < 5 | < 5 | 
Cc1cc(C(=O)/N=C(/NCC(C)C)Nc2cc(-c3ccc(F)cc3)n[nH]2)c(C)o1 [Compound A-192] | 5 to 16 | < 5 | 
Cc1ccc(-c2cc(N/C(=N\C(=O)c3cnoc3C)NC3(C)CCCC3)[nH]n2)cc1F [Compound A-92] | < 5 | < 5 | 
Cc1cc(C(=O)/N=C(/Nc2cc(F)cc(Cl)c2)Nc2c(C)c(C(F)(F)F)nn2CCO)on1 [Compound A-226] |  | < 5 | 5 to 16
